Test results taken from the NIST ThermoML archive (doi:10.1021/je200757a).

Tests used:
[1] = refractive index (Na D-line) (dimensionless); xn = mol fraction of the nth substance listed; settings: 101 kPa, Liquid
[2] = xn = mol fraction of the nth substance listed; settings: for viscosity / mass density: 101 kPa, Liquid; for viscosity: Capillary tube (Ostwald / Ubbelohde) method; for mass density: Vibrating tube method

C1C[C@@H]2[C@H]3CC[C@H](C3)[C@@H]2C1 [exo-tetrahydrodicyclopentadiene] + CCCCCCCCCCCC
Settings	mass density, [2] [kg/m3]	refractive index, [1]	surface tension liquid-gas, [2] [mN/m]	viscosity, [2] [mPa·s]
293.15 K, x2 = 0	935.3	1.4877	31.86	3.077
293.15 K, x2 = 0.0803	913	1.4796	30.13	2.796
293.15 K, x2 = 0.1712	889.9	1.4711	29.15	2.54
293.15 K, x2 = 0.2563	870	1.462	28.63	2.34
293.15 K, x2 = 0.3428	851.4	1.4573	27.95	2.169
293.15 K, x2 = 0.4443	831.4	1.4502	27.32	2.006
293.15 K, x2 = 0.5407	814.1	1.4448	26.32	1.881
293.15 K, x2 = 0.6527	795.7	1.4383	25.94	1.764
293.15 K, x2 = 0.7596	779.8	1.4325	25.67	1.672
293.15 K, x2 = 0.8855	762.7	1.4271	24.51	1.574
298.15 K, x2 = 0	931.4	–	–	2.784
298.15 K, x2 = 0.0803	909.1	–	–	2.535
298.15 K, x2 = 0.1712	886.1	–	–	2.307
298.15 K, x2 = 0.2563	866.2	–	–	2.127
298.15 K, x2 = 0.3428	847.7	–	–	1.974
298.15 K, x2 = 0.4443	827.7	–	–	1.827
298.15 K, x2 = 0.5407	810.4	–	–	1.715
298.15 K, x2 = 0.6527	792	–	–	1.61
298.15 K, x2 = 0.7596	776.1	–	–	1.526
298.15 K, x2 = 0.8855	759.1	–	–	1.438
303.15 K, x2 = 0	927.5	1.4832	31.09	2.525
303.15 K, x2 = 0.0803	905.2	1.4733	29.37	2.308
303.15 K, x2 = 0.1712	882.2	1.4657	28.51	2.104
303.15 K, x2 = 0.2563	862.4	1.4571	27.82	1.944
303.15 K, x2 = 0.3428	843.9	1.4524	26.77	1.807
303.15 K, x2 = 0.4443	824	1.4455	26.51	1.674
303.15 K, x2 = 0.5407	806.6	1.4396	25.84	1.572
303.15 K, x2 = 0.6527	788.3	1.4333	25.68	1.476
303.15 K, x2 = 0.7596	772.5	1.4279	24.58	1.4
303.15 K, x2 = 0.8855	755.5	1.4214	23.82	1.321
313.15 K, x2 = 0	919.6	–	–	2.112
313.15 K, x2 = 0.0803	897.4	–	–	1.939
313.15 K, x2 = 0.1712	874.5	–	–	1.775
313.15 K, x2 = 0.2563	854.7	–	–	1.644
313.15 K, x2 = 0.3428	836.2	–	–	1.532
313.15 K, x2 = 0.4443	816.4	–	–	1.422
313.15 K, x2 = 0.5407	799.2	–	–	1.337
313.15 K, x2 = 0.6527	780.9	–	–	1.257
313.15 K, x2 = 0.7596	765.1	–	–	1.193
313.15 K, x2 = 0.8855	748.1	–	–	1.128

C1C[C@@H]2[C@H]3CC[C@H](C3)[C@@H]2C1 [exo-tetrahydrodicyclopentadiene] + CCCCCCCCC
Settings	mass density, 293.15 K [kg/m3]	mass density, 298.15 K [kg/m3]	mass density, 303.15 K [kg/m3]	mass density, 313.15 K [kg/m3]	refractive index, 293.15 K	refractive index, 303.15 K	viscosity, 293.15 K [mPa·s]	viscosity, 298.15 K [mPa·s]	viscosity, 303.15 K [mPa·s]	viscosity, 313.15 K [mPa·s]
[1], x2 = 0	–	–	–	–	1.4877	1.4832	–	–	–	–
[1], x2 = 0.1089	–	–	–	–	1.4777	1.4728	–	–	–	–
[1], x2 = 0.2212	–	–	–	–	1.4667	1.4627	–	–	–	–
[1], x2 = 0.3244	–	–	–	–	1.457	1.4517	–	–	–	–
[1], x2 = 0.4159	–	–	–	–	1.45	1.445	–	–	–	–
[1], x2 = 0.5099	–	–	–	–	1.4422	1.4377	–	–	–	–
[1], x2 = 0.6161	–	–	–	–	1.4332	1.4282	–	–	–	–
[1], x2 = 0.7128	–	–	–	–	1.426	1.421	–	–	–	–
[1], x2 = 0.8078	–	–	–	–	1.4192	1.4139	–	–	–	–
[1], x2 = 0.9133	–	–	–	–	1.4114	1.4062	–	–	–	–
[2], x2 = 0	935.3	931.4	927.5	919.6	–	–	3.077	2.784	2.525	2.112
[2], x2 = 0.1089	907.6	903.7	899.8	891.9	–	–	2.455	2.229	2.04	1.728
[2], x2 = 0.2212	880.1	876.2	872.3	864.4	–	–	2.005	1.836	1.687	1.441
[2], x2 = 0.3244	855.8	851.9	848	840.1	–	–	1.683	1.545	1.426	1.227
[2], x2 = 0.4159	835.1	831.2	827.2	819.4	–	–	1.459	1.344	1.244	1.077
[2], x2 = 0.5099	814.5	810.6	806.6	798.8	–	–	1.277	1.176	1.091	0.951
[2], x2 = 0.6161	792	788.1	784.2	776.3	–	–	1.109	1.028	0.958	0.839
[2], x2 = 0.7128	772.3	768.4	764.5	756.7	–	–	0.985	0.917	0.856	0.754
[2], x2 = 0.8078	753.7	749.8	745.9	738	–	–	0.887	0.827	0.775	0.686
[2], x2 = 0.9133	733.7	729.8	725.9	718.1	–	–	0.795	0.744	0.699	0.622

surface tension liquid-gas [mN/m], [2], Capillary rise
Settings	x2 = 0	x2 = 0.1089	x2 = 0.2212	x2 = 0.3244	x2 = 0.4159	x2 = 0.5099	x2 = 0.6161	x2 = 0.7128	x2 = 0.8078	x2 = 0.9133
293.15 K	31.86	30.17	27.92	27.12	26.34	25.59	24.35	23.84	23.14	22.6
303.15 K	31.09	29.01	27.45	26.63	25.74	24.86	23.36	22.88	22.39	21.81

C1C[C@@H]2[C@H]3CC[C@H](C3)[C@@H]2C1 [exo-tetrahydrodicyclopentadiene] + CCCCCCCCCCCCC
Settings	mass density, [2] [kg/m3]	refractive index, [1]	surface tension liquid-gas, [2] [mN/m]	viscosity, [2] [mPa·s]
293.15 K, x2 = 0	935.3	1.4877	31.86	3.077
293.15 K, x2 = 0.0757	913.9	1.4795	30.4	2.88
293.15 K, x2 = 0.1546	893.5	1.4726	29.63	2.703
293.15 K, x2 = 0.2392	873.7	1.4662	28.55	2.552
293.15 K, x2 = 0.3284	854.6	1.4586	28.03	2.419
293.15 K, x2 = 0.4236	836.3	1.4528	27.19	2.302
293.15 K, x2 = 0.5258	818.7	1.4468	26.68	2.198
293.15 K, x2 = 0.632	802.3	1.4407	25.95	2.108
293.15 K, x2 = 0.7477	786.3	1.4349	25.54	2.028
293.15 K, x2 = 0.8665	771.5	1.4306	25.19	1.963
298.15 K, x2 = 0	931.4	–	–	2.784
298.15 K, x2 = 0.0757	910	–	–	2.609
298.15 K, x2 = 0.1546	889.7	–	–	2.448
298.15 K, x2 = 0.2392	869.9	–	–	2.311
298.15 K, x2 = 0.3284	850.9	–	–	2.189
298.15 K, x2 = 0.4236	832.6	–	–	2.082
298.15 K, x2 = 0.5258	815	–	–	1.992
298.15 K, x2 = 0.632	798.7	–	–	1.913
298.15 K, x2 = 0.7477	782.7	–	–	1.842
298.15 K, x2 = 0.8665	767.9	–	–	1.789
303.15 K, x2 = 0	927.5	1.4832	31.09	2.525
303.15 K, x2 = 0.0757	906.1	1.4743	29.94	2.37
303.15 K, x2 = 0.1546	885.9	1.4683	28.98	2.233
303.15 K, x2 = 0.2392	866.1	1.4614	28.38	2.112
303.15 K, x2 = 0.3284	847.1	1.4541	27.21	2
303.15 K, x2 = 0.4236	828.9	1.4483	26.74	1.904
303.15 K, x2 = 0.5258	811.3	1.442	25.72	1.822
303.15 K, x2 = 0.632	795	1.4357	25.38	1.748
303.15 K, x2 = 0.7477	779	1.4305	24.83	1.689
303.15 K, x2 = 0.8665	764.3	1.4258	24.5	1.631
313.15 K, x2 = 0	919.6	–	–	2.112
313.15 K, x2 = 0.0757	898.4	–	–	1.975
313.15 K, x2 = 0.1546	878.2	–	–	1.86
313.15 K, x2 = 0.2392	858.4	–	–	1.759
313.15 K, x2 = 0.3284	839.5	–	–	1.669
313.15 K, x2 = 0.4236	821.4	–	–	1.587
313.15 K, x2 = 0.5258	803.9	–	–	1.521
313.15 K, x2 = 0.632	787.7	–	–	1.466
313.15 K, x2 = 0.7477	771.8	–	–	1.416
313.15 K, x2 = 0.8665	757	–	–	1.369
